No end group written: not given here. Where only a bound is given, the exact number is not on record here.

The experiment relates to LPS-induced NO generation in RAW264.7 cells. The experiment is described as follows: NO inhibitory assay (Griess reaction), LPS-activated RAW 264.7. To be noted: E. coli LPS 0.1 μg/ml, 24 h, Griess reaction; mean of triplicate wells from at least three experiments. The experiment is classed as cell-based, mouse. The protocol: RAW 264.7 cells (2 × 10^5 in 0.5 ml of medium) were seeded in 24-well plates and then incubated with or without LPS (0.1 μg/ml) in the absence or presence of AMP for 24 h. The effects of AMP on NO production were measured indirectly by analyzing nitrite levels using the Griess reaction as described in detail previously.
In general terms: The Griess reaction detects nitrite, a stable product of nitric oxide.
On to GLTFLKKILNFAKKIYTAIW [GW-H3], for which the “ED50, effective dose of AMPs that inhibits 50% of LPS-induced NO generation in RAW264.7 cells” value came out at 4 µM.

With GATYAKKIIKTITKIATTAW [GW-A5], the “ED50, effective dose of AMPs that inhibits 50% of LPS-induced NO generation in RAW264.7 cells” value is >8 µM.

With GANAAKKFATIAKKFINYLW [GW-Q4], the “ED50, effective dose of AMPs that inhibits 50% of LPS-induced NO generation in RAW264.7 cells” value is >8 µM.

GAKYAKYIYNFYKYIAKYIW [GW-A1]: the “ED50, effective dose of AMPs that inhibits 50% of LPS-induced NO generation in RAW264.7 cells” value was >8 µM.

Consider GAKALTKAATAFTKFYKTIW [GW-A4], for which the “ED50, effective dose of AMPs that inhibits 50% of LPS-induced NO generation in RAW264.7 cells” value turned out to be 4 µM.

Consider GANAAKKLATFAKKIFTAYW [GW-M1], for which the “ED50, effective dose of AMPs that inhibits 50% of LPS-induced NO generation in RAW264.7 cells” value stood at 4 µM.

As to GYKYYNKIYNYLNKYLKYAW [GW-H0], the “ED50, effective dose of AMPs that inhibits 50% of LPS-induced NO generation in RAW264.7 cells” value was 5 µM.

As to GANLAKKFYTYINKFINYAW [GW-Q3], the “ED50, effective dose of AMPs that inhibits 50% of LPS-induced NO generation in RAW264.7 cells” value worked out at 7 µM.

For the sequence “GIGKFLHSAKKWGKAFVGEIMNS [Peptide M2a, Magainin 2a, reference compound]”, the “ED50, effective dose of AMPs that inhibits 50% of LPS-induced NO generation in RAW264.7 cells” value is >8 µM.

As to GIKIAKKAITIAKKIAKIYW [GW-Q6], the “ED50, effective dose of AMPs that inhibits 50% of LPS-induced NO generation in RAW264.7 cells” value was found to be 4 µM.

For the sequence GYNYAKKLANLAKKFANALW [GW-H1], the “ED50, effective dose of AMPs that inhibits 50% of LPS-induced NO generation in RAW264.7 cells” value is >8 µM.

In the case of “GWGSFFKKAAHVGKHVGKAALTHYL [Ple, Pleurocidin, reference compound]”, the “ED50, effective dose of AMPs that inhibits 50% of LPS-induced NO generation in RAW264.7 cells” value was >8 µM.

For the origin of these results see paper PMC5531531, “A synthetic cationic antimicrobial peptide inhibits inflammatory response and the NLRP3 inflammasome by neutralizing LPS and ATP” (PLoS ONE, 2017).
